Results: patent US20150191445A1, “ACYL-HYDRAZONE AND OXADIAZOLE COMPOUNDS, PHARMACEUTICAL COMPOSITIONS CONTAINING THE SAME AND USES THEREOF” (Universidade Federal de Santa Catarina, priority 2011, published 2015)

What was measured:
REH cells = test: MTT cytotoxicity assay, REH cell line; type: cell-based, human; conditions: 48 h of treatment
Procedure: All compounds were resuspended in DMSO at stock concentration of 20 mM and stored at −20° C. For cytotoxicity testing, the dilutions from the stock solutions were made in culture medium (RPMI-1640 plus 10% of fetal bovine serum, 100 IU/ml penicillin and 100 µg/mL Streptomycin), immediately before being discharged to the cells.
The REH and Jurkat cell lines were maintained in
RPMI-1640 medium with 10% FBS (fetal bovine serum), 100 IU/mL penicillin, 100 µg/mL streptomycin and incubated at 37° C. and 5% CO2. Cytotoxicity assays were performed according to the method described in the literature (Pieters, R.; et al. In vitro drug sensitivity of cells from children with leukemia using the MTT assay with improved culture conditions. Blood, 1990, 76, 2327-2336; Pieters, R.; et al. Relation of cellular drug resistance to long-term clinical outcome in childhood acute lymphoblastic leukaemia. Lancet, 1991, 338, 399-403 e Kaspers, G. J.; et al. In vitro cellular drug resistance and prognosis in newly diagnosed childhood acute lymphoblastic leukemia. Blood, 1997, 90, 2723). Cells were resuspended at a concentration of 3.75 10^5 cells/mL in culture medium as described. Eighty microliters of this suspension were seeded into plates with 96 round-bottom wells, containing 20 microliters of different concentrations of compound or vehicle alone. Each treatment was done in triplicate. After 48 hours of incubation at 37° C. and 5% CO2, 20 μL of MTT solution was added (5 mg/mL of 1x PBS), followed by further incubation for 4 hours and 30 minutes at 37° C. and 5% CO2. During these 4 hours and 30 minutes, MTT (yellowish) is metabolized to formazan salt (bluish in color) by living cells. After this, 100 μL sodium dodecyl sulphate (SDS) 10%+0.1M of HCl were added to dissolve the formazan crystals. After incubating overnight, absorbance reading at 570 nm was carried out. The percentage of cells surviving the treatment were calculated relative to the number of surviving cells in the medium without addition of the compounds in question (“negative control”).
c) Determination of IC: IC50 is defined as the concentration of a compound at which 50% of maximal inhibition is obtained. After reading the absorbance, survival curves were constructed and the values of IC50 were obtained with the GraphPad Prism software.

[1] = system: healthy and phytohemagglutinin-stimulated lymphocytes; test: MTT assay on normal lymphocytes stimulated with phytohemagglutinin; type: cell-based, human; conditions: for Percentage of survival: 48 h, MTT
Procedure: for the test of compound 07 against normal lymphocytes, blood from human donors was separated in a ficoll gradient and the mononuclear cells were cultivated at 200,000 cells/well, in 80 microliters of RPMI-1640 (containing 10% FBS, 100 IU/mL penicillin and 100 μg/mL streptomycin) and 20 microliters of phytohemagglutinin solution (Cultilab) in each well for stimulation of T lymphocytes. Compound 07 was added in serial dilutions (50%) from 300 to 1 nm. As a control, parallel tests were run with cells from leukemic Jurkat and REH cell lines, and experiments with colchicine with the same concentrations as compound 07. Cytotoxicity was assessed after 48 hours by the MTT method, as described Above.

[2] = system: cell cycle regulatory proteins in Jurkat cells; test: Western blot of cell cycle regulatory proteins; type: cell-based, human; conditions: 125 nM
Procedure: The cells were incubated for 12 hours in fresh medium before experiments. Two million cells from the Jurkat line were incubated for 12 h, 18 h, 24 h and 30 h in RPMI-640 medium supplemented with 10% Fetal Bovine Serum (FCS) and 0.2% Penicillin/Streptomycin (PS) with a concentration of 125 nM of compound 07 or DMSO (vehicle).
The cells treated or not with compound 07 were lysed in buffer containing 50 mM Tris pH 7.7, 150 mM NaCl, 5 mM EDTA, 1% Sigma phosphatase inhibitor cocktail I, 1% Sigma phosphatase inhibitor cocktail II, 1% Sigma protease inhibitor cocktail II, 1% Igepal, 0.1% SDS, 0.5% sodium deoxycholate and 1 mM PMSF. After incubation for 30 min on ice and 3 cycles of freezing and thawing, extracts were centrifuged at 10,000 rpm for 20 min at 4° C. to sediment membrane debris. Of the supernatant, we proceeded with protein quantification by Bradford reagent (Biorad). The samples were boiled for 5 min with prior addition of β-mercaptoethanol and 100 μg of protein were subjected to acrylamide:bisacrylamide gel electrophoresis (39:1) 10% with SDS and electrotransferred to 0.45 μm nitrocellulose membrane (Schleicher & Schuell). […]

[3] = molecular target: Trypanosoma cruzi cruzain (Trypanosoma cruzi, UniProt P25779); conditions: cited from earlier work
Trypanosoma cruzi cruzain, sequence (P25779 123-467): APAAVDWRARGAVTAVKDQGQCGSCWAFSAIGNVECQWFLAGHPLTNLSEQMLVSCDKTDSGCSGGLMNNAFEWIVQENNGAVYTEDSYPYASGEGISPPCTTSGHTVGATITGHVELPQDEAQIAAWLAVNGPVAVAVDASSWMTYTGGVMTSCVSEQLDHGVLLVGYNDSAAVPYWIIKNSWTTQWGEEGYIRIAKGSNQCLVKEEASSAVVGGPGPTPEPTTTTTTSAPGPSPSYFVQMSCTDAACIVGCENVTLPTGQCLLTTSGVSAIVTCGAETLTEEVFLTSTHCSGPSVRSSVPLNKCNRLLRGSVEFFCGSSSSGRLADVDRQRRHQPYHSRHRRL

**Q.** Which results are given for COc1cc(C(=O)NN=Cc2cccc3ccccc23)cc(OC)c1OC [Compound 07]?
**A.** IC50 (REH cells): 25.4 nM; effect on normal lymphocytes induced by phytohemagglutinin [1]: do not appear to affect normal lymphocytes; selectivity for leukemic cells compared to healthy human lymphocytes [1]: ~10 times; Percentage of survival ([1]; 4.6 nM): 103%; Percentage of survival ([1]; 9.38 nM): 105%; Percentage of survival ([1]; 18.75 nM): 105%; Percentage of survival ([1]; 37.5 nM): 101%; Percentage of survival ([1]; 75 nM): 108%; Percentage of survival ([1]; 150 nM): 107%; Percentage of survival ([1]; 300 nM): 95%; expression of CDKs [2]: repression of the expression of CDK4 and to a lesser extent also of CDK6, shorter isoform of CDK2 and larger isoform of CDK9; phosphorylation of Chk2 ([2]; after 12 hours of treatment): possible to detect the phosphorylation of Chk2 in Thr68; inhibitory activity of cruzain [3]: did not show inhibitory activity
